Test results published in patent US20180326101A1, “COMPOUND AND PHARMACEUTICAL COMPOSITION FOR TARGETED DRUG DELIVERY” (SeeCure Taiwan Co., Ltd., priority 2017, published 2018).

Biological target: T1, XC transporter (Homo sapiens, UniProt Q9UPY5)
T1 construct: endogenous in cells; host or cells: U251 cell line
T1 sequence (Q9UPY5 1-501): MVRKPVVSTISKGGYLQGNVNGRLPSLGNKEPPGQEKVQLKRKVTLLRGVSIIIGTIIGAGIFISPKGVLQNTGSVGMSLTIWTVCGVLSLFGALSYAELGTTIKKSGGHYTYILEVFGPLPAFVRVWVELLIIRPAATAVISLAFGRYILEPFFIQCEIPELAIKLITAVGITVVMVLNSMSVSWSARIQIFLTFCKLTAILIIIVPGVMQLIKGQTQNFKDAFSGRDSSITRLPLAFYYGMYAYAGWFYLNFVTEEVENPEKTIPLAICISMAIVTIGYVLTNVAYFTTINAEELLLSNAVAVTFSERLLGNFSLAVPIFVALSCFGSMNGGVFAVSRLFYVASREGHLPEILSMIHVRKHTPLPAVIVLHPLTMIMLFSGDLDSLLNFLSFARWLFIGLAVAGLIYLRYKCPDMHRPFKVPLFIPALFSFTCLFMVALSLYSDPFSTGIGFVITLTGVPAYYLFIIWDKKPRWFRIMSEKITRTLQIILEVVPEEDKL
T1 sequence (P08195 1-529 partner): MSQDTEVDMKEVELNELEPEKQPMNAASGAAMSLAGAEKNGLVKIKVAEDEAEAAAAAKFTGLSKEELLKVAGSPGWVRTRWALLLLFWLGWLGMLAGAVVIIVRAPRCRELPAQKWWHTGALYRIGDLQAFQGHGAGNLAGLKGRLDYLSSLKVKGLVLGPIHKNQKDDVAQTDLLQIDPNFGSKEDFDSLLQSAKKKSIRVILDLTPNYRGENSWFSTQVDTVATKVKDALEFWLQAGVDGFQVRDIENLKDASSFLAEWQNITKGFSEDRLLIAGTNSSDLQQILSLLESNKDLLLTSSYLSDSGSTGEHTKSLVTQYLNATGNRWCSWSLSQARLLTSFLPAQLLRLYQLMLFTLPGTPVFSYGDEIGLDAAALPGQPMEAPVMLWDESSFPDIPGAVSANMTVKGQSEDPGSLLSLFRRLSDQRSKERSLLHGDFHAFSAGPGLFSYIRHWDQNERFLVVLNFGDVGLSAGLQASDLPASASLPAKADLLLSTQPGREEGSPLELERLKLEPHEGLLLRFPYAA
Test: Blocking studies of cellular uptake with sulfasalazine (SAS) or cysteine
Format: cell-based
Settings: U251 cells, 2 hours incubation
Protocol: The cellular uptake of the ^99mTc-SAC-A and the ^99mTc-SAC-B compounds were performed using an U251 cell line. The cells were planted onto tissue culture plates at a concentration of 350,000 cells per well for the uptake and blocking studies. The cells were cultured in Eagle's MEM with Earle's BSS (90%) and fetal bovine serum (10%) under standard culture conditions (37° C., 95% humidified air and 5% CO2). After seeding, the cells were incubated at 37° C. for 48 hours to allow for cell attachment and growth. After reaching approximately 70% confluency of cells, the cells are ready for use in the cellular uptake/blocking experiments.
Specifically, upon reaching 70% cell confluency, the growth media were aspirated and the cells were washed twice with phosphate buffered saline (PBS). Serum-free media and the ^99mTc-SAC-A compound or ^99mTc-SAC-B compound obtained above were respectfully added to the each of the wells for performing the cellular uptake experiment. For the blocking studies, the cells were pre-treated with 500 μM and 1000 μM of sulfasalazine (SAS; a XC transporter specific inhibitor) or 500 μM and 1000 μM of cysteine (a competitive inhibitor) for 30 minutes prior to the addition of the ^99mTc-SAC-A or ^99mTc-SAC-B compounds. […] After 2 hours, the cells in each of the wells are washed with PBS, the cells are then collected and its radioactivity were counted using a gamma counter. […]

- cellular uptake when blocking agent cysteine (competitive inhibitor) was added (500 μM and 1000 μM cysteine pre-treatment 30 min): mostly inhibited
- cellular uptake when blocking agent SAS (XC transporter specific inhibitor) was added (500 μM and 1000 μM sulfasalazine pre-treatment 30 min): mostly inhibited
Compound: N[C@@H](CS[C@@H](CC(=O)O)C(=O)O)C(=O)O [SAC-B]
